Laboratory results reported in publication PMC9027599, “Secondary Metabolites in Basil, Bio-Insecticide, Inhibition Effect, and In Silico Molecular Docking against Proteolytic Enzymes of the Red Palm Weevil (Rhynchophorus ferrugineus)” (Plants, 2022).

How the values were obtained:
[1] = system: R. ferrugineus fourth larvae; assay: Topical application (contact insecticide) on larvae; type: in vivo, Rhynchophorus ferrugineus; details: 4th larvae, probit analysis, 95% confidence limits in brackets
Description: The R. ferrugineus adult and larvae were acquired from an insect breeding lab at King Faisal University’s Date Palm Research Center of Excellence and grown utilizing sugarcane stem long pieces. The extracts activity against larvae was determined by using topical application method with storing larvae at 4–5 °C for 5 min. Previous serial concentrations of extract (10 µL) were applied to the dorsum of each larvae using a hand-operated micro-applicator (Burkard Manufacturing Co., Ltd., Hertfordshire, UK with a 50-ll micro-syringe (MS-N50; Ito Corp., Shizuoka, Japan). Each larva was feeding on 10 cm stem pieces of long sugarcane, with 5 larvae/box with three replicates. After topical administration, larval mortality was determined after 24, 48, 72, and 96 h to determine the LD50. Adults were tested for antifeedant effect determined using ten-centimeter-long sections of sugarcane stem divided into equal longitudinal halves. Pieces of long sections of sugarcane stem with area ~32.2 cm^2 were dipped for ten seconds in the previous serial concentration of extract (10 mL) and, then, dried in room temperature air. […] Each package received a replacement pair (male and female). Each treatment was replicated ten times. After 24, 48, 72, and 96 h, feeding observations were assayed.
Finney states that the statistical analysis and probit analysis were conducted using the SPSS 25.0 program (Statistical Package for Social Sciences, Armonk, NY, USA). Chemical components were determined by PCA using SPSS 25.0 program and presented using XLSTAT 2018.1. PCA is a clustering technique that is used to determine the relationships between samples. […] We did a mortality against dosage regression and converted the resultant median dose to an LC50 value (µg/mL). The range of LC50 was calculated with a 95 percent confidence interval using least-squares. We conducted a one-way analysis of variance on the enzyme activity data (ANOVA). The Student–Newman–Keuls (SNK) test was applied with separate means, and differences at p ≤ 0.05 were considered significant.

[2] = system: total proteases; assay: Total proteolytic activity of fourth instar midgut homogenate, azocasein (in vitro); type: biochemical, Rhynchophorus ferrugineus; details: fourth instar larvae midgut homogenate
Description: The Lowry technique was used to determine the protein concentrations. Total proteolytic activity was determined in the fourth midgut instar larval (lab strain) homogenate of R. ferrugineus with azocasein in accordance with […] et al. […] [70]. […] Using a Sigma 3k30 cooling centrifuge, reserve homogenates prepared in a previous stage were spun at 5000 rpm for 30 min. Estimates of protein content and total proteolytic enzyme activity were made using the supernatants. The supernatant (10 μL) was incubated at 37 °C for 20 min, and the volume was adjusted to 60 μL using an assay buffer (pH 8), before adding azocasien (200 μL, 2% (w/v)). […] Following that, to activate the reaction, the substrate was introduced 20 min for Leupeptin, so the reaction was halted after 180 min at 37 °C with 300 μL of cool tri-chloroacetic acid (TCA) (10% (v/v). The mixture was centrifuged for 20 min at 5000 rpm (Sigma 3k30 cooling centrifuge). […] To learn more about the proteases found in homogenate preparations of R. ferrugineus fourth midgut larval instars, inhibitors from many different types of mechanisms were used. […] As a control, an assay combination devoid of inhibitors was utilized. The absorbance of the enzymes was determined using an ELISA plate quick reader at various wavelengths. The percentage activity of the control enzyme for each inhibitor was evaluated for each enzyme. […] Larvae were exposed for 24 h to leaf discs treated with extract and compounds.

[3] = target: cysteine protease; assay: Cysteine proteinase activity, Z-Phe-Arg-MNA (in vitro); type: biochemical, Rhynchophorus ferrugineus; details: fourth instar larvae midgut homogenate
Description: The activity of cysteine proteinase was determined in the fourth midgut instar larval homogenate of R. ferrugineus using the substrate Z-Phe-Arg-MNA [1]. Ten larvae were carefully removed, dissected, and rinsed repeatedly with NaCl solution (0.9% (w/v). The midgut instar was homogenized in protease assay buffer (500 µL) [5 mM DTT, 50 mM HEPS (N-2-Hydroxyethyl piperazin-N’-2-ethanesulfonic acid), pH 8.0, and 0.1 percent Triton X-100]. The reaction mixture was centrifuged for 30 min at 5000 rpm (Sigma 3k30 cooling centrifuge). The supernatant was utilized to determine the overall activity of proteolytic enzymes and the protein content. The supernatant (10 µL) was incubated for 30 min at 37 °C, and the volume was adjusted to 60 µL using assay buffer (pH 8) before adding 100 µL of substrate (0.5 mM). Prior to adding the substrate, 10 µL enzyme samples were pre-incubated with iodoacetic acid for 10 min. After 60 min at 37 °C of mixture incubation, the reaction was halted with the addition of 1.5 mL mersalyl (5 mM), 0.02 mg/mL fast garnet reactive solution, and 2% Tween 20. The reaction was centrifuged (at 5000 rpm, 6 min), then the absorbance was determined (at 520 nm). The activity of cysteine proteinase was measured using an ELISA quick plate reader at the OD520/60 min/mg of midgut protein. As a blank, a test mixture devoid of enzyme was used. […] The fourth homogenates of midgut larval were produced as reported before in the experiment for determining enzyme activity. As previously disclosed, the inhibitory experiment was performed using a microplate assay. A series of inhibitor concentrations was created to determine the inhibitor’s maximal inhibitory effect. Leupeptin concentrations of 0.01, 0.05, 0.1, and 1.0 mM, PMSF concentrations of 0.1, 1.0, 10, and 50 mM, TLCK and TPCK concentrations of 0.01, 0.05, 0.1, 1, 50, and 100 mM, EDTA concentrations of 0.1, 1, 10, 50, and 100 mM, and iodoacetic acid concentrations of 0.01, 0.05, 0.1, and 1 mM.
As a control, an assay combination devoid of inhibitors was utilized. The absorbance of the enzymes was determined using an ELISA plate quick reader at various wavelengths. The percentage activity of the control enzyme for each inhibitor was evaluated for each enzyme. Protease activity was assayed in vivo in the R. ferrugineus fourth midgut larval instars, which were treated with 1, 10, 50, 100, 500, 1000, and 5000 mg/L of extracts or compounds, measured as described above. Larvae were exposed for 24 h to leaf discs treated with extract and compounds.

[4] = system: trypsin-like serine proteinase; assay: Trypsin-like activity of midgut from larvae treated 24 h (in vivo); design: species or system Rhynchophorus ferrugineus; details: midgut of fourth instar larvae treated for 24 h
Description: The midguts were homogenized in the assay buffer (100 mM Tris-HCl, pH 8.1) and centrifuged for 30 min at 8000 rpm (Sigma 3K 30, rotors No. 12158). […] […] (100 mg/mL in DMF), BAρNA (100 mg/mL in DMSO), and […] (100 mg/mL in DMF) stock substrates were diluted in the assay buffer to 1 mg/mL, and substrate volume was 50 μL. […] The activity was quantified using an ELISA plate reader at a wavelength of 405 nm. As an empty well, an assay combination containing a denaturation enzyme was utilized instead of an active enzyme. […] To learn more about the proteases found in homogenate preparations of R. ferrugineus fourth midgut larval instars, inhibitors from many different types of mechanisms were used. […] As a control, an assay combination devoid of inhibitors was utilized. The absorbance of the enzymes was determined using an ELISA plate quick reader at various wavelengths. The percentage activity of the control enzyme for each inhibitor was evaluated for each enzyme. […] Larvae were exposed for 24 h to leaf discs treated with extract and compounds.

Compound	LD50 [1]	IC50 against total proteases (in vitro) [2] [µg/mL]	IC50 against cysteine protease (in vitro) [3] [µg/mL]	IC50 against trypsin-like serine proteinase (in vivo) [4] [µg/mL]
C[C@@H]1O[C@@H](OC[C@H]2O[C@@H](Oc3c(-c4ccc(O)c(O)c4)oc4cc(O)cc(O)c4c3=O)[C@H](O)[C@@H](O)[C@@H]2O)[C@H](O)[C@H](O)[C@H]1O [Quercetin-3-O-rutinoside]	16.9 (15.1–17.6) µg/Larvae	82.6	53.6	325.5
O=C(O)C[C@H](C(=O)O)[C@@H](O)C(=O)O [Isocitric acid]	23.9 (21.1–24.6) µg/Larvae	143.3	119.1	314.8
dicaffeoyl-tartaric acid [Chicoric acid]	10.23 (9.87–10.94) µg/Larvae	63.1	81.2	75.1
O=C(/C=C/c1ccc(O)c(O)c1)O/C=C\c1ccc(O)c(O)c1 [Nepetoidin B]	11.9 (11.1–12.3) µg/Larvae	102.4	63.3	102.7
O=C(/C=C/c1ccc(O)c(O)c1)O[C@H](Cc1ccc(O)c(O)c1)C(=O)O [Rosmarinic acid]	12.4 (11.8–12.7) µg/Larvae	109.6	67.8	174.6
COc1ccc(-c2cc(=O)c3c(O)c(OC)c(OC)cc3o2)cc1 [Salvigenin, 5-Hydroxy-6,7,4′-trimethoxyflavone]	11.4 (10.4–11.8) µg/Larvae	72.4	89.6	241.2
